Measured values from PubChem BioAssay AID328 (DTP/NCI, 2004).
Several values for one entry are separate records, joined by “and”; a condition that tells them apart may be missing. Identical values can stand only once. Toxic doses and inconclusive results are not listed.

System: BDF1 mice, P388 leukemia ip, median survival T/C
Test: NCI In Vivo Anticancer Drug Screen. Data for tumor model P388 Leukemia (intraperitoneal) in B6D2F1 (BDF1) mice
Conditions: endpoint: median survival time, higher = longer survival
In short: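 Survival ratio, drug arm over vehicle arm, in mice with a transplanted tumour.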

[1] = dose: 50.0 mg/kg/injection, schedule: Q01DX009 (ip), vehicle: saline with Tween-80
[2] = dose: 100.0 mg/kg/injection, schedule: Q01DX009 (ip), vehicle: saline with Tween-80
[3] = dose: 100.0 mg/kg/injection, schedule: Q04DX003 (ip), vehicle: saline with Tween-80
[4] = dose: 200.0 mg/kg/injection, schedule: Q04DX003 (ip), vehicle: saline with Tween-80
[5] = dose: 50.0 mg/kg/injection, schedule: Q01DX009 (ip), vehicle: saline
[6] = dose: 100.0 mg/kg/injection, schedule: Q01DX009 (ip), vehicle: saline
[7] = dose: 200.0 mg/kg/injection, schedule: Q01DX009 (ip), vehicle: saline
[8] = dose: 6.25 mg/kg/injection, schedule: Q01DX009 (ip), vehicle: water
[9] = dose: 12.5 mg/kg/injection, schedule: Q01DX009 (ip), vehicle: water

## COC(=O)[C@@H]1c2cc3c(c(O)c2[C@@H](OC2OC(C)C(OC)C(C)(OC)C2OC)C[C@]1(C)O)C(=O)c1c(O)cc2c(c1C3=O)O[C@H]1O[C@]2(C)[C@H](O)[C@@H](N(C)C)[C@@H]1O (stereo partly drawn)
dose: 0.13 mg/kg/injection, schedule: Q01DX010 (ip), vehicle: saline
  T/C: 113 % of control
dose: 0.19 mg/kg/injection, schedule: Q01DX010 (ip), vehicle: saline
  T/C: 154 % of control
dose: 0.25 mg/kg/injection, schedule: Q01DX009 (sc), vehicle: saline
  T/C: 100 % of control
dose: 0.25 mg/kg/injection, schedule: Q01DX010 (ip), vehicle: saline
  T/C: 109 % of control
dose: 0.38 mg/kg/injection, schedule: Q01DX010 (ip), vehicle: saline
  T/C: 150 % of control
dose: 0.5 mg/kg/injection, schedule: Q01DX009 (sc), vehicle: saline
  T/C: 100 % of control
dose: 0.75 mg/kg/injection, schedule: Q01DX001 (sc), vehicle: saline
  T/C: 100 % of control
dose: 1.0 mg/kg/injection, schedule: Q01DX009 (ip), vehicle: saline
  T/C: 109 % of control
dose: 1.0 mg/kg/injection, schedule: Q01DX009 (sc), vehicle: saline
  T/C: 100 % of control
dose: 1.0 mg/kg/injection, schedule: Q01DX010 (ip), vehicle: saline
  T/C: 155 % of control
dose: 1.5 mg/kg/injection, schedule: Q01DX001 (sc), vehicle: saline
  T/C: 100 % of control
dose: 2.0 mg/kg/injection, schedule: Q01DX009 (ip), vehicle: saline
  T/C: 100 % of control
dose: 2.0 mg/kg/injection, schedule: Q01DX009 (oral), vehicle: saline
  T/C: 100 % of control
dose: 2.0 mg/kg/injection, schedule: Q01DX009 (sc), vehicle: saline
  T/C: 100 % of control
dose: 2.16 mg/kg/injection, schedule: Q04DX003 (ip), vehicle: water
  T/C: 95 % of control
dose: 3.0 mg/kg/injection, schedule: Q01DX001 (sc), vehicle: saline
  T/C: 100 % of control
dose: 3.0 mg/kg/injection, schedule: Q04DX003 (ip), vehicle: water
  T/C: 107 % of control
dose: 4.0 mg/kg/injection, schedule: Q01DX009 (ip), vehicle: saline
  T/C: 100 % of control
dose: 4.0 mg/kg/injection, schedule: Q01DX009 (oral), vehicle: saline
  T/C: 100 % of control
dose: 4.0 mg/kg/injection, schedule: Q01DX009 (sc), vehicle: saline
  T/C: 104 % of control
dose: 5.0 mg/kg/injection, schedule: Q01DX001 (oral), vehicle: saline
  T/C: 100 % of control
dose: 6.0 mg/kg/injection, schedule: Q01DX001 (sc), vehicle: saline
  T/C: 100 % of control
dose: 8.0 mg/kg/injection, schedule: Q01DX009 (oral), vehicle: saline
  T/C: 100 % of control
dose: 10.0 mg/kg/injection, schedule: Q01DX001 (oral), vehicle: saline
  T/C: 100 % of control
dose: 12.0 mg/kg/injection, schedule: Q01DX001 (sc), vehicle: saline
  T/C: 100 % of control
dose: 16.0 mg/kg/injection, schedule: Q01DX009 (oral), vehicle: saline
  T/C: 100 % of control
dose: 20.0 mg/kg/injection, schedule: Q01DX001 (oral), vehicle: saline
  T/C: 100 % of control
dose: 40.0 mg/kg/injection, schedule: Q01DX001 (oral), vehicle: saline
  T/C: 100 % of control
dose: 7.0 micrograms/kg/injection, schedule: Q01DX010 (ip), vehicle: saline
  T/C: 110 % of control
dose: 15.0 micrograms/kg/injection, schedule: Q01DX010 (ip), vehicle: saline
  T/C: 90 % of control
dose: 30.0 micrograms/kg/injection, schedule: Q01DX010 (ip), vehicle: saline
  T/C: 110 % of control

## C#CC[N+](CCO)(CCO)CCCCCCCCCCCCCCCCCC
dose: 3.13 mg/kg/injection, schedule: Q01DX009 (ip), vehicle: Klucel (hydroxypropylcellulose) (HPC)
  T/C: 110 % of control
dose: 6.25 mg/kg/injection, schedule: Q01DX009 (ip), vehicle: Klucel (hydroxypropylcellulose) (HPC)
  T/C: 109 % of control
dose: 12.5 mg/kg/injection, schedule: Q01DX009 (ip), vehicle: Klucel (hydroxypropylcellulose) (HPC)
  T/C: 113 % of control and 120 % of control

## COC(=O)c1c(Cl)c(Cl)c(C(=O)OC)c(Cl)c1Cl
dose: 25.0 mg/kg/injection, schedule: Q01DX009 (ip), vehicle: saline with Tween-80
  T/C: 100 % of control
[1]
  T/C: 100 % of control
[2]
  T/C: 86 % of control
[3]
  T/C: 91 % of control
[4]
  T/C: 108 % of control
dose: 266.0 mg/kg/injection, schedule: Q04DX003 (ip), vehicle: saline with Tween-80
  T/C: 95 % of control
dose: 400.0 mg/kg/injection, schedule: Q04DX003 (ip), vehicle: saline with Tween-80
  T/C: 90 % of control
dose: 600.0 mg/kg/injection, schedule: Q04DX003 (ip), vehicle: saline with Tween-80
  T/C: 100 % of control

## CCOC(=O)c1cc(-c2ccccc2)[nH]c1-c1ccccc1
[5]
  T/C: 96 % of control
[6]
  T/C: 100 % of control
[7]
  T/C: 98 % of control

## O=C1C=CC(=O)N1
dose: 0.26 mg/kg/injection, schedule: Q01DX009 (ip), vehicle: saline
  T/C: 105 % of control
dose: 0.4 mg/kg/injection, schedule: Q01DX009 (ip), vehicle: saline
  T/C: 90 % of control
dose: 0.61 mg/kg/injection, schedule: Q01DX009 (ip), vehicle: saline
  T/C: 100 % of control
dose: 0.93 mg/kg/injection, schedule: Q01DX009 (ip), vehicle: saline
  T/C: 109 % of control
dose: 1.39 mg/kg/injection, schedule: Q01DX009 (ip), vehicle: saline
  T/C: 118 % of control
dose: 3.6 mg/kg/injection, schedule: Q04DX003 (ip), vehicle: saline
  T/C: 95 % of control
dose: 8.5 mg/kg/injection, schedule: Q04DX003 (ip), vehicle: saline
  T/C: 104 % of control

## CCN(CC)Cc1c(C)[nH]c2c(OC)cccc2c1=O
[8]
  T/C: 97 % of control
dose: 6.25 mg/kg/injection, schedule: Q04DX003 (ip), vehicle: water
  T/C: 98 % of control
[9]
  T/C: 99 % of control
dose: 12.5 mg/kg/injection, schedule: Q04DX003 (ip), vehicle: water
  T/C: 91 % of control
dose: 25.0 mg/kg/injection, schedule: Q01DX009 (ip), vehicle: water
  T/C: 106 % of control
dose: 25.0 mg/kg/injection, schedule: Q04DX003 (ip), vehicle: water
  T/C: 105 % of control
dose: 50.0 mg/kg/injection, schedule: Q01DX009 (ip), vehicle: water
  T/C: 97 % of control
dose: 50.0 mg/kg/injection, schedule: Q04DX003 (ip), vehicle: water
  T/C: 100 % of control
dose: 100.0 mg/kg/injection, schedule: Q01DX009 (ip), vehicle: water
  T/C: 108 % of control
dose: 100.0 mg/kg/injection, schedule: Q04DX003 (ip), vehicle: water
  T/C: 105 % of control

## Cc1ccc(S(=O)(=O)OCC2C3C=CC(C3)C2COS(=O)(=O)c2ccc(C)cc2)cc1 (stereo not drawn)
dose: 100.0 mg/kg/injection, schedule: Q01DX009 (ip), vehicle: Klucel (hydroxypropylcellulose) (HPC)
  T/C: 86 % of control
dose: 100.0 mg/kg/injection, schedule: Q04DX003 (ip), vehicle: Klucel (hydroxypropylcellulose) (HPC)
  T/C: 86 % of control
dose: 200.0 mg/kg/injection, schedule: Q01DX009 (ip), vehicle: Klucel (hydroxypropylcellulose) (HPC)
  T/C: 104 % of control
dose: 200.0 mg/kg/injection, schedule: Q04DX003 (ip), vehicle: Klucel (hydroxypropylcellulose) (HPC)
  T/C: 90 % of control
dose: 400.0 mg/kg/injection, schedule: Q01DX009 (ip), vehicle: Klucel (hydroxypropylcellulose) (HPC)
  T/C: 100 % of control
dose: 400.0 mg/kg/injection, schedule: Q04DX003 (ip), vehicle: Klucel (hydroxypropylcellulose) (HPC)
  T/C: 90 % of control

## O=S(=O)(O)O.O=S(=O)([O-])[O-].O=[N+]([O-])O.[Co+3].[Co+3].[NH2-].[NH2-].[NH2-].[NH2-].[NH2-].[NH2-].[NH2-].[NH2-].[NH2-]
[8]
  T/C: 97 % of control
[9]
  T/C: 124 % of control

## Cn1c(N)c(N=Cc2ccc(Cl)cc2)c(=O)n(C)c1=O
[3]
  T/C: 92 % of control
[4]
  T/C: 99 % of control

## CCCCCSC(=S)N(C)NC(=O)c1ccccn1
[1]
  T/C: 103 % of control
[2]
  T/C: 101 % of control
dose: 200.0 mg/kg/injection, schedule: Q01DX009 (ip), vehicle: saline with Tween-80
  T/C: 100 % of control

## COc1ccc(C=[N+](C)CCc2ccc(OC)c(OC)c2)cc1OC
dose: 25.0 mg/kg/injection, schedule: Q01DX009 (ip), vehicle: saline
  T/C: 95 % of control
[5]
  T/C: 101 % of control
dose: 50.0 mg/kg/injection, schedule: Q04DX003 (ip), vehicle: saline
  T/C: 106 % of control
[6]
  T/C: 100 % of control
dose: 100.0 mg/kg/injection, schedule: Q04DX003 (ip), vehicle: saline
  T/C: 102 % of control
[7]
  T/C: 116 % of control
dose: 200.0 mg/kg/injection, schedule: Q04DX003 (ip), vehicle: saline
  T/C: 100 % of control
dose: 400.0 mg/kg/injection, schedule: Q04DX003 (ip), vehicle: saline
  T/C: 106 % of control
